Measurements: patent publication US20220402916A1, “SMALL MOLECULE INHIBITORS OF KRAS G12C MUTANT” (Merck Sharp & Dohme Corp., priority 2019, published 2022)
pIC50: −log10 of the molar value. Read-outs that look alike come from different tables or passages of the source.

Assays:
NCI-H358 cells = assay: Cellular phospho-ERK assay; format: cell-based; conditions: NCI-H358 cells, 2 hour incubation, ratio of p-Erk vs total Erk, read-out: IC50
Method: NCI-H358 cells (ATCC® CRL-5807™) were cultured in T150 flask in growth medium (RPMI medium 1640-GlutaMAX™-1 (ThermoFisher Scientific 61870) containing 10% fetal bovine serum (ThermoFisher Scientific 10091148)). The cells were harvested in growth medium after TrypLE (ThermoFisher scientific 12604021) digestion and were seeded in 384-well collagen coated cell culture plate (Corning 356702) at a density of 15,000 cells/well, and incubated at 37° C., 5% CO2 overnight. The compound dose-response titrations were prepared and appropriate amounts of compounds were dispensed in 384-well intermediate plate using Echo 550 liquid handler. RPMI medium 1640-GlutaMAX™-I were added to the intermediate plate and transferred to 384-well cell culture plate, which was incubated at 37° C., 5% CO2 for 2 hours. After removal of medium from the plate, cells were lysed in lysis buffer from Alpha SureFire® Ultra™ Multiplex p-Erk and total Erk assay kit (PerkinElmer MPSU-PTERK) containing Halt™ Protease and Phosphotase inhibitor cocktail (ThermoFisher Scientific 78446) at room temperature with constant shaking at 300 rpm for 30 minutes. The cell lysates were then transferred to OptiPlate-384 plate (PerkinElmer 6005620) and the phosphorylation of Erk and total Erk levels were detected by Alpha SureFire Ultra Multiplex p-Erk kit (PerkinElmer MPSU-PTERK) following the manufacturer's protocol. Assay plates were read on an EnVision Multimode Plate Reader (PerkinElmer) and the ratio of p-Erk vs total Erk in each well was used as the final readout. Dose response curves were analyzed using a 4-parameter logistic model to calculate IC50 values using spotfire software.

[1] = target: T1, Biotinylated KRAS G12C protein (Homo sapiens, UniProt P01116, C118S/C51S/C80L/G12C); assay: SOS-catalyzed nucleotide exchange assay; format: biochemical; conditions: apparent potency; preincubation time of 60 minutes prior to addition of SOS
T1 construct: 183 amino acids; biotin on K10
T1 sequence (P01116 with tags, fused parts or gaps isoform P01116-2 G12C/C51S/C80L/C118S): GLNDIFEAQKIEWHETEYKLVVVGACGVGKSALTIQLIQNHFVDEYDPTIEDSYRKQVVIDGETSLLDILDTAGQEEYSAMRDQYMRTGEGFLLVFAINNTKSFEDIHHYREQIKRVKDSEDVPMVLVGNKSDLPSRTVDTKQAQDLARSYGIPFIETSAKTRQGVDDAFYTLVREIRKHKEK

SMILES | pIC50 (NCI-H358 cells; Homo sapiens, NCI-H358, 2 h) | IC50 [1] [nM] | pIC50 (NCI-H358 cells)
C=CC(=O)N1CCN(c2cc(C(=O)NCCC3CCCCN3)nc3c2CCN(c2cccc4cccc(C)c24)C3)C[C@@H]1CC#N (mixture of isomers) [Compound 105, 4-((S)-4-acryloyl-3-(cyanomethyl)piperazin-1-yl)-7-(8-methylnaphthalen-1-yl)-N-(2-((R)-piperidin-2-yl)ethyl)-5,6,7,8-tetrahydro-1,7-naphthyridine-2-carboxamide, as a mixture with 4-((S)-4-acryloyl-3-(cyanomethyl)piperazin-1-yl)-7-(8-methylnaphthalen-1-yl)-N-(2-((S)-piperidin-2-yl)ethyl)-5,6,7,8-tetrahydro-1,7-naphthyridine-2-carboxamide] | 5.31 | 17 | 
C=CC(=O)N1CCN(c2cc(C(=O)NCC3CCCNC3)nc3c2CCN(c2cccc4cccc(C)c24)C3)C[C@@H]1CC#N (mixture of isomers) [Compound 106, 4-((S)-4-acryloyl-3-(cyanomethyl)piperazin-1-yl)-7-(8-methylnaphthalen-1-yl)-N-(((R)-piperidin-3-yl)methyl)-5,6,7,8-tetrahydro-1,7-naphthyridine-2-carboxamide, as a mixture with 4-((S)-4-acryloyl-3-(cyanomethyl)piperazin-1-yl)-7-(8-methylnaphthalen-1-yl)-N-(((S)-piperidin-3-yl)methyl)-5,6,7,8-tetrahydro-1,7-naphthyridine-2-carboxamide] | 5.28 | 33 | 
C=CC(=O)N1CCN(c2cc(C(=O)NC(C)CN3CCC(F)(F)C3)nc3c2CCN(c2cccc4cccc(C)c24)C3)C[C@@H]1CC#N (single isomer, unassigned) [Compound 71, 4-((S)-4-acryloyl-3-(cyanomethyl)piperazin-1-yl)-N—((R or S)-1-(3,3-difluoropyrrolidin-1-yl)propan-2-yl)-7-(8-methylnaphthalen-1-yl)-5,6,7,8-tetrahydro-1,7-naphthyridine-2-carboxamide] |  | 32 | 5.26
C=CC(=O)N1CCN(c2cc(C(=O)NC(C)CN3CCC(F)(F)C3)nc3c2CCN(c2cccc4cccc(C)c24)C3)C[C@@H]1CC#N (single isomer, unassigned) [Compound 72, 4-((S)-4-acryloyl-3-(cyanomethyl)piperazin-1-yl)-N—((S or R)-1-(3,3-difluoropyrrolidin-1-yl)propan-2-yl)-7-(8-methylnaphthalen-1-yl)-5,6,7,8-tetrahydro-1,7-naphthyridine-2-carboxamide] |  | 529 | 4.59
C=CC(=O)N1CCN(c2cc(C(=O)NC(C)CN3CCC(C)(O)C3)nc3c2CCN(c2cccc4cccc(C)c24)C3)C[C@@H]1CC#N (single isomer, unassigned) [Compound 73, 4-((S)-4-acryloyl-3-(cyanomethyl)piperazin-1-yl)-N—((R or S)-1-((R or S)-3-hydroxy-3-methylpyrrolidin-1-yl)propan-2-yl)-7-(8-methylnaphthalen-1-yl)-5,6,7,8-tetrahydro-1,7-naphthyridine-2-carboxamide] |  | 9.7 | 6.59
C=CC(=O)N1CCN(c2cc(C(=O)NC(C)CN3CCC(C)(O)C3)nc3c2CCN(c2cccc4cccc(C)c24)C3)C[C@@H]1CC#N (single isomer, unassigned) [Compound 74, 4-((S)-4-acryloyl-3-(cyanomethyl)piperazin-1-yl)-N-((S or R)-1-((R or S)-3-hydroxy-3-methylpyrrolidin-1-yl)propan-2-yl)-7-(8-methylnaphthalen-1-yl)-5,6,7,8-tetrahydro-1,7-naphthyridine-2-carboxamide] |  | 5.4 | 7.35
C=CC(=O)N1CCN(c2cc(C(=O)NC(C)CN3CCC(C)(O)C3)nc3c2CCN(c2cccc4cccc(C)c24)C3)C[C@@H]1CC#N (single isomer, unassigned) [Compound 75, 4-((S)-4-acryloyl-3-(cyanomethyl)piperazin-1-yl)-N-((R or S)-1-((S or R)-3-hydroxy-3-methylpyrrolidin-1-yl)propan-2-yl)-7-(8-methylnaphthalen-1-yl)-5,6,7,8-tetrahydro-1,7-naphthyridine-2-carboxamide] |  | 7.2 | 7.17
